# Experimental data reported in publication PMC10539501 (Nature Communications, 2023).
# Starred links: 1 amine or outer side, 2 acyl side, 3 side chain; linkers in the order of their positions; H or OH if unused. Non-standard residues stand in square brackets, D forms with d. Residues, ends and D or L forms follow the SMILES beside them. X10 = NCCCC[C@H](NC(=S)[C@@H](Cc1c[nH]c2ccccc12)N[*:1])C(=O)[*:2]; X12 = C[C@@H](O)[C@H](N[*:1])C(=S)N[C@@H](Cc1ccccc1)C(=O)[*:2]; X7 = C[C@@H](O)[C@H](NC(=S)[C@H](CCCCN)N[*:1])C(=O)[*:2]; X2 = CC(C)C[C@H](NC(=S)[C@@H](CC(C)C)N[*:1])C(=O)[*:2]; X8 = O=C([C@H](Cc1ccccc1)NC(=S)[C@@H]1CCCN1[*:1])[*:2]
# Experiments:
# [1] = in vitro; details: both, human, plasma
# [2] = type: physicochemical
# [3] = system: pancreatin
# [4] = system: growth hormone (GH) release; assay: In vivo inhibition of growth hormone release (sandwich ELISA); parameters: species or system rats; details: for AUC 0_24: growth hormone AUC 0-24 h; for AUC 0_24 / AUC 0_48 / AUC 24_48: mean of n = 3; for AUC 0_48: growth hormone AUC 0-48 h; for AUC 24_48: growth hormone AUC 24-48 h
# Method: In vivo inhibition of GH. Finally, we estimated the in vivo efficacy of 13 and the thioamidated analogs 13b, 13d, and 13e in suppressing the release of growth hormone (GH) post subcutaneous injection at 250 μg/kg dosage (Fig. 7e). 13a was also included as a negative control to assess its effect on GH release. The rats were bled from their orbital sinus, and the plasma GH levels were evaluated through sandwich ELISA. […] This correlates well with the high plasma concentration of 13 at the initial time points and a rapid drop within 2 h of s.c. administration (Fig. 7c). […] In contrast, the inhibitory effect lasts longer in 13b, 13d, and 13e showing a significant reduction in plasma GH levels within 24–48 h (Fig. 7h). […] The rapid drop in plasma concentration of 13 is responsible for its least in vivo efficacy.
# Animal housing and acclimatization were done at Central Animal Facility, IISc Bangalore, as mentioned in the previous section, following protocols from the IEAC and CPCSEA. […] Samples were processed as discussed in Supplementary Information, and sandwich ELISA was performed to measure the growth hormone level in blood plasma. For acute toxicity, after peptide injection (s.c.), blood samples were collected on the 14th day for liver and kidney function tests.
# [5] = PAMPA passive permeability; type: in vitro ADME;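 further: passive permeability across an artificial membrane in 96-well pre-coated PAMPA plates, which lack transporters and efflux systems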
# [6] = in vitro; details: both, human, plasma; remark: listed apart in the source
# [7] = biological target: T1, SSTR5 (Homo sapiens, UniProt P35346); assay: GloSensor assay, inhibition of forskolin-induced cAMP production; type: cell-based; details: for binding against SSTR5 (in words): HEK293T cells expressing SSTR5, cAMP GloSensor
# T1 construct: expressed in transfected cells; host or cells: HEK-293T (CRL-3216)
# Method: HEK-293T cells (CRL-3216 from ATCC, procured from NCCS, Pune) were co-transfected with human somatostatin receptor subtypes 2 & 5, plasmid cDNA, and cAMP biosensor (pGloSensorTM-22F plasmid; Promega Corp.) using PEImax. Ligand incubation was followed by the addition and incubation of forskolin (FSK) to the plate. Dose-dependent inhibition of forskolin-induced cAMP production by the peptide ligands was measured using a luminescence plate reader. An elaborate description of the assay setup has been provided in Supplementary Information.
# [8] = in vivo; details: male, rat, sc; for half-life: Sprague-Dawley
# [9] = physchem; details: pH 7.4
# [10] = biological target: T2, SSTR2 (Homo sapiens, UniProt P30874); assay: GloSensor assay, inhibition of forskolin-induced cAMP production; type: cell-based; details: for IC50: read-out: IC50 sstr2; for binding against SSTR2 (in words): HEK293T cells expressing SSTR2, cAMP GloSensor
# T2 construct: expressed in transfected cells; host or cells: HEK-293T (CRL-3216)
# [11] = HDX of amide protons by NMR in DMSO-d6:D2O (8:2); details: HDX by NMR, 20% D2O in DMSO-d6
# [12] = system: Caco-2 cells; assay: in vitro; type: in vitro ADME, human; details: Caco-2
# [13] = in vitro; type: in vitro ADME, human
# [14] = HDX of amide protons by NMR in CDCl3:CD3OD (8:2)
# [15] = in vivo; details: male, Wistar, rat
# [16] = rat, in vivo, po, 10 mg/kg
# [17] = in vitro; details: human, microsomes
# [18] = system: human liver microsomes
# [19] = biological target: pepsin (Sus scrofa, UniProt P00791); assay: in vitro; details: simulated gastric fluid, pH 1.2
# [20] = in vitro; details: pig, simulated intestinal fluid
# [21] = type: physicochemical; remark: listed apart in the source
# [22] = Retention in hydrophobic C18 column by HPLC; details: Supplementary Fig 3d, logD7.4 vs tR
# [23] = 20% CD3OD in CDCl3, % remaining after 24 hours
# 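Wherever Papp A-B avg (second block) is given: Caco-2 monolayers used 21 days after seeding in HBSS-HEPES buffer with 1% DMSO, donor and acceptor levels quantified by LC-MS/MS, TEER checked before and after.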
# 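Wherever Papp A-B set 1 (second block) is given: Caco-2 monolayers used 21 days after seeding in HBSS-HEPES buffer with 1% DMSO, donor and acceptor levels quantified by LC-MS/MS, TEER checked before and after.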
# 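Wherever Papp A-B set 2 (second block) is given: Caco-2 monolayers used 21 days after seeding in HBSS-HEPES buffer with 1% DMSO, donor and acceptor levels quantified by LC-MS/MS, TEER checked before and after.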
# 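Wherever Papp B-A avg (second block) is given: Caco-2 monolayers used 21 days after seeding in HBSS-HEPES buffer with 1% DMSO, donor and acceptor levels quantified by LC-MS/MS, TEER checked before and after.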
# T1 sequence (P35346 whole entry): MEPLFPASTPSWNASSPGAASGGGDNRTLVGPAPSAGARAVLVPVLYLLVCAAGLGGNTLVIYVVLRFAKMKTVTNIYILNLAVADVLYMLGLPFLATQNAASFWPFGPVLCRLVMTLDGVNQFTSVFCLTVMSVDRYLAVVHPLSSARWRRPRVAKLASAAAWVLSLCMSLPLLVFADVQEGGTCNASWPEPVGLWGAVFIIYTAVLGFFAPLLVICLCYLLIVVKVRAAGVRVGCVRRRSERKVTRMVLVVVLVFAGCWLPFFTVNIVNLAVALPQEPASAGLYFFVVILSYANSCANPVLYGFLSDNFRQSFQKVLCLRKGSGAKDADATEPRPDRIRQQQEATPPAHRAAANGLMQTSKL
# pepsin, sequence (P00791 60-385): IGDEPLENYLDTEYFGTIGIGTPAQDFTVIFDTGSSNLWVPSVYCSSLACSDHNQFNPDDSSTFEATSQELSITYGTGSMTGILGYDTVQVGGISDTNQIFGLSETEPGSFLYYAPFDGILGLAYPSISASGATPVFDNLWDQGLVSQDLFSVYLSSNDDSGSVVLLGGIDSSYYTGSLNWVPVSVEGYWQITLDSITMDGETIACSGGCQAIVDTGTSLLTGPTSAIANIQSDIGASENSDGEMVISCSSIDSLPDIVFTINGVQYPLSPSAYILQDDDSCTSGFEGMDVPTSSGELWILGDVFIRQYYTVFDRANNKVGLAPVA
# T2 sequence (P30874 whole entry): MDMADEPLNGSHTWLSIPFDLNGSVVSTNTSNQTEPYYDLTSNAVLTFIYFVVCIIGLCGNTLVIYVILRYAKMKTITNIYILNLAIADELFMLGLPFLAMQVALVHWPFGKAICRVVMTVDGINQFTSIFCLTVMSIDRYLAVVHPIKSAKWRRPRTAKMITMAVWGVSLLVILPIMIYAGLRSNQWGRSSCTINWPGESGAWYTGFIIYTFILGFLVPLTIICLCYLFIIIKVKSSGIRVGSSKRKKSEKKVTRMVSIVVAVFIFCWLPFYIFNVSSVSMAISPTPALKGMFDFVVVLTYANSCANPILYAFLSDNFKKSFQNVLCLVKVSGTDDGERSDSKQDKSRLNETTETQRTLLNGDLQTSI
smiles,measurement,setting,value
C[C@@H](O)[C@@H]1NC(=S)[C@H](CCCCN)NC(=O)[C@@H](Cc2c[nH]c3ccccc23)NC(=O)[C@H](Cc2ccccc2)NC(=O)[C@@H]2CCCN2C(=O)[C@H](Cc2ccccc2)NC1=O [13b] (cyclo(FPF[dW][X7])),fraction unbound,[1],0.14
same,logD heptane ethylene glycol,[2],-0.83
same,t1/2 in SIF,[3],over 72 h
same,AUC 0_24,[4],436 ng·h/mL
same,AUC 0_48,[4],1134 ng·h/mL
same,AUC 24_48,[4],668 ng·h/mL
same,inhibition of unstimulated GH release,"[4]; rats, 250 μg/kg s.c., plasma GH by sandwich ELISA over 48 h",significant inhibition
same,Papp,[5]; Pe,2.92 ×10⁻⁶ cm/s
same,half-life,[6],1920 min
same,IC50,[7],228 ± 41.9 nM
same,level at 0.5 h,[8]; Sprague Dawley,72 ng/mL
same,level at 1 h,[8]; Sprague Dawley,44 ng/mL
same,half-life,[8],36 ± 12 min
same,logD,[9],-0.64
same,IC50,[10],15.6 ± 4.3 nM
CC(C)C[C@@H]1NC(=O)[C@H](Cc2ccc(O)cc2)NC(=O)[C@H]2CCCN2C(=O)[C@H](CC(C)C)NC(=O)[C@H](CC(C)C)NC(=S)[C@@H](CC(C)C)NC1=O [10a] (cyclo(L[dP]YL[X2])),fraction unbound,[1],0.28
same,Half-life of D-Leu1 amide proton (HDX),[11],170 min
same,Half-life of Leu2 amide proton (HDX),[11],110 min
same,Half-life of Leu3 amide proton (HDX),[11],720 min
same,Half-life of Leu6 amide proton (HDX),[11],800 min
same,Half-life of Tyr5 amide proton (HDX),[11],50.3 min
same,logD heptane ethylene glycol,[2],0.97
same,Papp A-B avg (second block),[12],3.25e-06 cm/s
same,Papp A-B set 1 (second block),[12],3.14e-06 cm/s
same,Papp A-B set 2 (second block),[12],3.36e-06 cm/s
same,Papp B-A avg (second block),[12],7.54e-05 cm/s
same,Papp B-A set 1 (second block),[12],7.74e-05 cm/s
same,Papp B-A set 2 (second block),[12],7.33e-05 cm/s
same,Papp A→B,"[13]; Caco-2, Papp A-B + Elacridar avg",13 ×10⁻⁶ cm/s
same,Papp A→B,"[13]; Caco-2, Papp A-B avg",3.25 ×10⁻⁶ cm/s
same,Papp B→A,"[13]; Caco-2, Papp B-A + Elacridar avg",16.9 ×10⁻⁶ cm/s
same,Papp B→A,"[13]; Caco-2, Papp B-A avg",75.4 ×10⁻⁶ cm/s
same,Half-life of D-Leu1 amide proton (HDX),[14]; 20% CD3OD in CDCl3,1155 min
same,Half-life of Leu2 amide proton (HDX),[14]; 20% CD3OD in CDCl3,20 min
same,Half-life of Leu3 amide proton (HDX),[14]; 20% CD3OD in CDCl3,> 1440 min
same,Half-life of Leu6 amide proton (HDX),[14]; 20% CD3OD in CDCl3,> 1440 min
same,Half-life of Tyr5 amide proton (HDX),[14]; 20% CD3OD in CDCl3,> 1440 min
same,"% intact NH, Leu3",[14]; [23],80%
same,"% intact NH, Leu6",[14]; [23],89%
same,"% intact NH, Tyr5",[14]; [23],80%
same,Pe set1,[5],8.08e-06 cm/s
same,Pe set2,[5],1.25e-05 cm/s
same,Pe set3,[5],1.181e-05 cm/s
same,Papp,[5]; Pe Avg,10.8 ×10⁻⁶ cm/s
same,half-life,[6],1320 min
same,remaining at 1 h,[6],94%
same,remaining at 3 h,[6],84%
same,remaining at 5 h,[6],78%
same,remaining at 7 h,[6],72%
same,remaining at 9 h,[6],66%
same,remaining at 12 h,[6],56%
same,remaining at 24 h,[6],45%
same,remaining at 36 h,[6],33%
same,remaining at 48 h,[6],23%
same,remaining at 60 h,[6],22%
same,remaining at 72 h,[6],21%
same,AUC(0-t),[15]; iv,146 ng·h/mL
same,Cmax,[15]; iv,48.1 ng/mL
same,MRT,[15]; iv,2.8 h
same,Vd,[15]; iv,28.6 L/kg
same,clearance,[15]; iv,91.1 mL/min/kg
same,bioavailability,[15]; po,1.8%
same,AUC(0-t),"[15]; po, 10 mg/kg",26.9 ng·h/mL
same,Cmax,"[15]; po, 10 mg/kg",15 ng/mL
same,MRT,"[15]; po, 10 mg/kg",2 h
same,level at 3 h,"[15]; po, 10 mg/kg",3 ng/mL
same,AUClast p.o,[16],26.9 ng·h/mL
same,time over which the peptide is detectable in plasma,[16],≥ 8 h
same,logD,[9],1.21
same,microsomal CLint,[17],29.5 µL/min/mg
same,remaining at 5 min,[17],75%
same,remaining at 10 min,[17],65%
same,remaining at 20 min,[17],64%
same,remaining at 0.5 h,[17],58%
same,remaining at 0.75 h,[17],52%
same,remaining at 1 h,[17],44%
same,Half lives,[18],46.9
same,half-life,[19],42 min
same,remaining at 5 min,[19],83%
same,remaining at 10 min,[19],74%
same,remaining at 20 min,[19],63%
same,remaining at 0.5 h,[19],56%
same,remaining at 1 h,[19],42%
same,remaining at 2 h,[19],34%
same,remaining at 4 h,[19],31%
same,remaining at 8 h,[19],19%
same,remaining at 12 h,[19],11%
same,remaining at 24 h,[19],7%
same,half-life,[20],147 min
same,remaining at 10 min,[20],78.4%
same,remaining at 0.5 h,[20],66%
same,remaining at 1 h,[20],55.9%
same,remaining at 2 h,[20],49.2%
same,remaining at 4 h,[20],34%
same,remaining at 8 h,[20],26.3%
same,remaining at 12 h,[20],18.8%
same,remaining at 24 h,[20],11%
same,% solubility,[21],58%
same,tR,[22],10.8 min
C[C@@H](O)[C@@H]1NC(=O)[C@H](CCCCN)NC(=O)[C@@H](Cc2c[nH]c3ccccc23)NC(=O)[C@H](Cc2ccccc2)NC(=S)[C@@H]2CCCN2C(=O)[C@H](Cc2ccccc2)NC1=O [13e] (cyclo(F[X8][dW]KT)),fraction unbound,[1],0.09
same,logD heptane ethylene glycol,[2],-1.16
same,Papp,[5]; Pe,1.92 ×10⁻⁶ cm/s
same,half-life,[6],1860 min
same,IC50,[7],232 ± 70.4 nM
same,level at 0.5 h,[8]; Sprague Dawley,38.1 ng/mL
same,level at 1 h,[8]; Sprague Dawley,57 ng/mL
same,half-life,[8],36 ± 18 min
same,logD,[9],-0.72
same,IC50,[10],19.2 ± 11.4 nM
C[C@@H](O)[C@@H]1NC(=O)[C@H](CCCCN)NC(=S)[C@@H](Cc2c[nH]c3ccccc23)NC(=O)[C@H](Cc2ccccc2)NC(=O)[C@@H]2CCCN2C(=O)[C@H](Cc2ccccc2)NC1=O [13a] (cyclo(FPF[X10]T)),fraction unbound,[1],0.11
same,logD heptane ethylene glycol,[2],-0.94
same,t1/2 in SIF,[3],over 72 h
same,AUC 0_24,[4],1085 ng·h/mL
same,AUC 0_48,[4],2274 ng·h/mL
same,AUC 24_48,[4],1188 ng·h/mL
same,Papp,[5]; Pe,2.45 ×10⁻⁶ cm/s
same,half-life,[6],2040 min
same,IC50,[7],> 10000 nM
same,binding against SSTR5 (in words),[7],complete loss in binding
same,level at 0.5 h,[8]; Sprague Dawley,146 ng/mL
same,level at 1 h,[8]; Sprague Dawley,107 ng/mL
same,level at 2 h,"[8]; Sprague Dawley, 250 ug/kg",40 ng/mL
same,half-life,[8],42 ± 6 min
same,logD,[9],-0.65
same,binding against SSTR2 (in words),[10],complete loss in binding
same,IC50,[10],> 10000 nM
C[C@@H](O)[C@@H]1NC(=O)[C@H](CCCCN)NC(=O)[C@@H](Cc2c[nH]c3ccccc23)NC(=O)[C@H](Cc2ccccc2)NC(=O)[C@@H]2CCCN2C(=O)[C@H](Cc2ccccc2)NC1=S [13c] (cyclo(F[dW]K[X12]P)),fraction unbound,[1],0.21
same,logD heptane ethylene glycol,[2],-1.18
same,Papp,[5]; Pe,0.96 ×10⁻⁶ cm/s
same,half-life,[6],1980 min
same,binding against SSTR5 (in words),[7],complete loss in binding
same,logD,[9],-1.04
same,binding against SSTR2 (in words),[10],complete loss in binding
same,half-life,[20],150 min
